Test results from patent publication US20240239752A1, “BICYCLIC HETEROAROMATIC INHIBITORS OF KLK5” (BioCryst Pharmaceuticals, Inc., priority 2021, published 2024).
pIC50: −log10 of the molar value.

Biological target: T1, recombinant human KLK5 (Homo sapiens, UniProt Q9Y337)
T1 construct: purchased Novoprotein or R&D Systems C415 or 1108-SE
T1 sequence (Q9Y337 23-293): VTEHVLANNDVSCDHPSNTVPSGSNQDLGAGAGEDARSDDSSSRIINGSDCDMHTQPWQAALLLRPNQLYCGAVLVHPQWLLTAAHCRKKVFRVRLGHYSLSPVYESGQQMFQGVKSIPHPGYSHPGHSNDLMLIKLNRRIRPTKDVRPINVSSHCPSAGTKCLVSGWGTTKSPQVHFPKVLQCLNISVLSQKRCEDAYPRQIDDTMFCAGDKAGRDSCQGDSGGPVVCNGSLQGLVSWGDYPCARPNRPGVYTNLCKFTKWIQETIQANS
Assay: Kallikrein (KLK) 5 enzymatic assay (Boc-VPR-AMC fluorogenic substrate)
Type: biochemical
Conditions: recombinant human KLK5 0.1 μg/well, Boc-VPR-AMC 100 μM, pH 7.5, room temperature, 1% DMSO; tested a minimum of three times
Summary of the method: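 Fluorogenic rate assay at pH 7.5 (0.1 M NaH2PO4, 1% DMSO, room temperature), run at least three times per compound. Compound was premixed with 0.1 μg/well recombinant human KLK5 before adding 100 μM Boc-VPR-AMC; AMC release was read at ex 380/em 460 nm, and IC50 derived from inhibition of rate vs DMSO control.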

| pIC50 | Compound |
| --- | --- |
| > 6.00 | Nc1nccc2ccc(-c3cnc4c(c3)c(COc3ccccc3CC(=O)O)nn4C3CCC3)cc12 [Compound 197j, 2-(2-((5-(1-aminoisoquinolin-7-yl)-1-cyclobutyl-1H-pyrazolo[3,4-b]pyridin-3-yl)methoxy)phenyl)acetic acid] |
| > 6.00 | COc1ccc(CC(=O)O)c(OCc2nn(C3CC3)c3ccc(-c4ccc5ccnc(N)c5c4)cc23)c1 [Compound 66e, 2-(2-((5-(1-aminoisoquinolin-7-yl)-1-cyclopropyl-1H-indazol-3-yl)methoxy)-4-methoxyphenyl)acetic acid] |
| > 6.00 | CC(=O)N1CCC2(CC1)CC(Oc1cccc(C)c1CC(=O)O)c1cc(-c3ccc4ccnc(N)c4c3)ccc12 (stereo not shown) [Compound 406c, 2-(2-((1′-acetyl-5-(1-aminoisoquinolin-7-yl)-2,3-dihydrospiro[indene-1,4′-piperidin]-3-yl)oxy)-6-methylphenyl)acetic acid] |
| > 6.00 | Nc1nccc2c(-c3cnc4c(c3)c(COc3ccccc3CC(=O)O)nn4C3CCC3)cccc12 [Compound 198b, 2-(2-((5-(1-aminoisoquinolin-5-yl)-1-cyclobutyl-1H-pyrazolo[3,4-b]pyridin-3-yl)methoxy)phenyl)acetic acid] |
| > 6.00 | CCOC(=O)N1CCC2(CC1)CC(Oc1ccccc1CC(=O)O)c1cc(-c3cccc4c(N)nccc34)ccc12 (stereo not shown) [Compound 372b, 2-(2-((5-(1-aminoisoquinolin-5-yl)-1′-(ethoxycarbonyl)-2,3-dihydrospiro[indene-1,4′-piperidin]-3-yl)oxy)phenyl)acetic acid] |
| 5.00 to 6.00 | COc1ccc(CC(=O)O)c(OCc2c3cc(-c4ccc5ccnc(N)c5c4)ccc3nn2C2CCC2)c1 [Compound 20b, 2-(2-((5-(1-aminoisoquinolin-7-yl)-2-cyclobutyl-2H-indazol-3-yl)methoxy)-4-methoxyphenyl)acetic acid] |
| > 6.00 | CC[C@@H](C)n1nc(COc2ccccc2CC(=O)O)c2cc(-c3cccc4c(N)nccc34)ccc21 [Compound 191b, (R)-2-(2-((5-(1-aminoisoquinolin-5-yl)-1-(sec-butyl)-1H-indazol-3-yl)methoxy)phenyl)acetic acid] |
| > 6.00 | Nc1nccc2ccc(-c3ccc4c(c3)c(COc3ccccc3CC(=O)O)nn4CC3CNC3)cc12 [Compound 295c, 2-(2-((5-(1-aminoisoquinolin-7-yl)-1-(azetidin-3-ylmethyl)-1H-indazol-3-yl)methoxy)phenyl)acetic acid] |
| < 5.00 | CC(C)n1nc(COc2ccccc2CC(=O)O)c2cc(-c3ccc4oc(N)nc4c3)ccc21 [Compound 27c, 2-(2-((5-(2-aminobenzo[d]oxazol-5-yl)-1-isopropyl-1H-indazol-3-yl)methoxy)phenyl)acetic acid] |
| > 6.00 | CC(C)N1CCN(C2CC(Oc3ccccc3CC(=O)O)c3cc(-c4ccc5ccnc(N)c5c4)ccc32)CC1 (stereo not shown) [Compound 457b] |
| > 6.00 | Nc1nccc2c(-c3ccc4c(c3)c(COc3ccccc3CC(=O)O)nn4C3CC3)cccc12 [Compound 65b, 2-(2-((5-(1-aminoisoquinolin-5-yl)-1-cyclopropyl-1H-indazol-3-yl)methoxy)phenyl)acetic acid] |
| 5.00 to 6.00 | Cc1ccc(CC(=O)O)c(OCc2c3cc(-c4cccc5c(N)nccc45)ccc3nn2C2CCC2)c1 [Compound 18c, 2-(2-((5-(1-aminoisoquinolin-5-yl)-2-cyclobutyl-2H-indazol-3-yl)methoxy)-4-methylphenyl)acetic acid] |
| 5.00 to 6.00 | CC(C)Oc1c(C(=N)N)cccc1-c1ccc2c(c1)c(COc1ccccc1CC(=O)O)nn2C(C)C [Compound 272f, 2-(2-((5-(3-carbamimidoyl-2-isopropoxyphenyl)-1-isopropyl-1H-indazol-3-yl)methoxy)phenyl)acetic acid] |
| 5.00 to 6.00 | Cc1ccc2c(N)nccc2c1-c1ccc2c(c1)c(COc1ccccc1CC(=O)O)nn2C(C)C [Compound 78d, 2-(2-((5-(1-amino-6-methylisoquinolin-5-yl)-1-isopropyl-1H-indazol-3-yl)methoxy)phenyl)acetic acid] |
| > 6.00 | COCCN1CCC(n2nc(COc3ccccc3CC(=O)O)c3cc(-c4ccc5ccnc(N)c5c4)ccc32)C1 (stereo not shown) [Compound 304b, 2-(2-((5-(1-aminoisoquinolin-7-yl)-1-(1-(2-methoxyethyl)pyrrolidin-3-yl)-1H-indazol-3-yl)methoxy)phenyl)acetic acid] |
| > 6.00 | CCOC(=O)N1CCC(n2nc(COc3ccccc3CC(=O)O)c3cc(-c4cccc5c(N)nccc45)ccc32)C1 (stereo not shown) [Compound 311b, 2-(2-((5-(1-aminoisoquinolin-5-yl)-1-(1-(ethoxycarbonyl)pyrrolidin-3-yl)-1H-indazol-3-yl)methoxy)phenyl)acetic acid] |
| > 6.00 | Cc1cccc(OCc2nn(C3CCC3)c3ccc(-c4cccc5c(N)nccc45)cc23)c1CC(=O)O [Compound 162b, 2-(2-((5-(1-aminoisoquinolin-5-yl)-1-cyclobutyl-1H-indazol-3-yl)methoxy)-6-methylphenyl)acetic acid] |
| 5.00 to 6.00 | Cc1ccc(OCc2c3cc(-c4cccc5c(N)nccc45)ccc3nn2C2CCC2)c(CC(=O)O)c1 [Compound 156b, 2-(2-((5-(1-aminoisoquinolin-5-yl)-2-cyclobutyl-2H-indazol-3-yl)methoxy)-5-methylphenyl)acetic acid] |
| > 6.00 | COc1ccc(CC(=O)O)c(OCc2nn(C)c3ccc(-c4cccc5c(N)nccc45)cc23)c1 [Compound 72b, 2-(2-((5-(1-aminoisoquinolin-5-yl)-1-methyl-1H-indazol-3-yl)methoxy)-4-methoxyphenyl)acetic acid] |
| > 6.00 | COc1ccc(O[C@@H]2CCc3ccc(-c4cccc5c(N)nccc45)cc32)c(CC(=O)O)c1 [Compound 431c, (R)-2-(2-((6-(1-aminoisoquinolin-5-yl)-2,3-dihydro-1H-inden-1-yl)oxy)-5-methoxyphenyl)acetic acid] |
| > 6.00 | CC(C)OC(=O)N1CC[C@H](n2nc(COc3ccccc3CC(=O)O)c3cc(-c4cccc5c(N)nccc45)ccc32)C1 [Compound 359b, (S)-2-(2-((5-(1-aminoisoquinolin-5-yl)-1-(1-(isopropoxycarbonyl)pyrrolidin-3-yl)-1H-indazol-3-yl)methoxy)phenyl)acetic acid] |
| > 6.00 | Nc1nccc2c(-c3cc(C4CC4)c4c(c3)C(Oc3ccccc3CC(=O)O)CC4)cccc12 (stereo not shown) [Compound 257b, 2-(2-((6-(1-aminoisoquinolin-5-yl)-4-cyclopropyl-2,3-dihydro-1H-inden-1-yl)oxy)phenyl)acetic acid] |
| > 6.00 | Nc1nccc2c(-c3ccc4c(c3)C(Oc3ccccc3CC(=O)O)CC4)cccc12 (stereo not shown) [Compound 200b, 2-(2-((6-(1-aminoisoquinolin-5-yl)-2,3-dihydro-1H-inden-1-yl)oxy)phenyl)acetic acid] |
| > 6.00 | Nc1nccc2c(-c3ccc4c(c3)c(COc3ccccc3CC(=O)O)nn4CC3CCC3)cccc12 [Compound 252h, 2-(2-((5-(1-aminoisoquinolin-5-yl)-1-(cyclobutylmethyl)-1H-indazol-3-yl)methoxy)phenyl)acetic acid] |
| > 6.00 | CCOC(=O)N1CC[C@H](n2nc(COc3ccccc3CC(=O)O)c3cc(-c4cccc5c(N)nccc45)ccc32)C1 [Compound 345e, (S)-2-(2-((5-(1-aminoisoquinolin-5-yl)-1-(1-(ethoxycarbonyl)pyrrolidin-3-yl)-1H-indazol-3-yl)methoxy)phenyl)acetic acid] |
| > 6.00 | Nc1nccc2c(-c3ccc4c(c3)[C@H](Oc3cc(C(F)(F)F)ccc3CC(=O)O)CC4)cccc12 [Compound 428b, (R)-2-(2-((6-(1-aminoisoquinolin-5-yl)-2,3-dihydro-1H-inden-1-yl)oxy)-4-(trifluoromethyl)phenyl)acetic acid] |
| 5.00 to 6.00 | CC(C)n1nc(C(=O)Nc2ccccc2C(=O)O)c2cc(-c3cccc(C(=N)N)c3)ccc21 [Compound 1i, 2-(5-(3-carbamimidoylphenyl)-1-isopropyl-1H-indazole-3-carboxamido)benzoic acid] |
| > 6.00 | CCOC(=O)N1CCC2(CC1)CC(Oc1cccc(C)c1CC(=O)O)c1cc(-c3ccc4ccnc(N)c4c3)ccc12 (stereo not shown) [Compound 404c, 2-(2-((5-(1-aminoisoquinolin-7-yl)-1′-(ethoxycarbonyl)-2,3-dihydrospiro[indene-1,4′-piperidin]-3-yl)oxy)-6-methylphenyl)acetic acid] |
| > 6.00 | COC(=O)N1CCC2(CC1)CC(Oc1cccc(C)c1CC(=O)O)c1cc(-c3ccc4ccnc(N)c4c3)ccc12 (stereo not shown) [Compound 381e, 2-(2-((5-(1-aminoisoquinolin-7-yl)-1′-(methoxycarbonyl)-2,3-dihydrospiro[indene-1,4′-piperidin]-3-yl)oxy)-6-methylphenyl)acetic acid] |

| Compound | pIC50 |
| --- | --- |
| CC(C)(C)OC(=O)N1CCC2(CC1)CC(Oc1ccccc1CC(=O)O)c1cc(-c3cccc4c(N)nccc34)ccc12 (stereo not shown) [Compound 347d, 2-(2-((5-(1-aminoisoquinolin-5-yl)-1′-(tert-butoxycarbonyl)-2,3-dihydrospiro[indene-1,4′-piperidin]-3-yl)oxy)phenyl)acetic acid] | > 6.00 |
| CC(C)(C)OC(=O)N1CCC2(CC1)C[C@H](Oc1ccccc1CC(=O)O)c1cc(-c3cccc4c(N)nccc34)ccc12 [Compound 392f, (S)-2-(2-((5-(1-aminoisoquinolin-5-yl)-1′-(tert-butoxycarbonyl)-2,3-dihydrospiro[indene-1,4′-piperidin]-3-yl)oxy)phenyl)acetic acid] | > 6.00 |
